What all share (test): HLA class I binding assay, purified HLA, inhibition of 125I-labelled probe peptide
For one assay, the target named is HLA-A*0203 (Homo sapiens, UniProt P04439, A173T/D140Y/D185E/D98H/E277Q/G131W/G231S/I119V/I121R/I166T/I218V/L180W/L300P/L318F/N151K/N90K/P208A/P217A/Q86G/Q94H/R138H/R169H/T345S). The conditions noted are these: A*[…], A2 supermotif cross-reactive binding data.
The target of another assay is HLA-A*0201 (Homo sapiens, UniProt P04439, D140Y/D185E/D98H/E176V/E277Q/G131W/G231S/I119V/I121R/I166T/I218V/L300P/L318F/N151K/N90K/P208A/P217A/Q86G/Q94H/R138H/R169H/T345S). To be noted: A*[…], A2 supermotif cross-reactive binding data.
The next assay concerns the target HLA-A*6802 (Homo sapiens, UniProt P04439, A269V/D140Y/D185E/E176V/E277Q/E87N/F33Y/G231S/I121R/I166T/I218V/L180W/L300P/L318F/N151K/P208A/P217A/Q86R/R138H/R169H/S129P/T345S/V36M). To be noted: A2 supermotif cross-reactive binding data; read-out: A*6802 nM.
A further assay deals with HLA-A*0206 (Homo sapiens, UniProt P04439, D140Y/D185E/D98H/E176V/E277Q/F33Y/G131W/G231S/I119V/I121R/I166T/I218V/L300P/L318F/N151K/N90K/P208A/P217A/Q86G/Q94H/R138H/R169H/T345S). To be noted: A*[…], A2 supermotif cross-reactive binding data.
Another assay addresses HLA-A*0202 (Homo sapiens, UniProt P04439, D140Y/D185E/D98H/E176V/E277Q/G131W/G231S/I119L/I121R/I166T/I218V/L180W/L300P/L318F/N151K/N90K/P208A/P217A/Q67R/Q86G/Q94H/R138H/R169H/T345S). To be noted: A2 supermotif cross-reactive binding data.

This note sets out measurements from patent publication US20040037843A1, “Inducing cellular immune responses to prostate cancer antigens using peptide and nucleic acid compositions” (priority 2003, published 2004).

As to `CSCC[C@H](NC(=O)[C@H](CC(=O)O)NC(=O)[C@H](CC(N)=O)NC(=O)[C@H](CO)NC(=O)[C@H](CC(C)C)NC(=O)[C@H](CC(C)C)NC(=O)[C@@H](N)Cc1c[nH]cn1)C(=O)N[C@@H](CS)C(=O)N[C@@H](C)C(=O)N[C@@H](CCCNC(=N)N)C(=O)N[C@H](C(=O)O)C(C)C` [Peptide 1418.67], the IC50 on HLA-A*0203 is 5.3 nM; on HLA-A*0201 it was 26 nM; at HLA-A*6802, 860 nM; on HLA-A*0206 it was 37 nM; on HLA-A*0202, 1.3 nM.

As to `CC[C@H](C)[C@H](NC(=O)[C@H](Cc1ccccc1)NC(=O)[C@H](C)NC(=O)[C@H](CCCNC(=N)N)NC(=O)[C@H](CCC(=O)O)NC(=O)[C@H](CC(C)C)NC(=O)[C@H](Cc1ccccc1)NC(=O)[C@H](CCSC)NC(=O)[C@H](CC(C)C)NC(=O)[C@@H](N)CCC(N)=O)C(=O)O` [Peptide 1126.16], the IC50 at HLA-A*0203 was 91 nM; at HLA-A*0201 it was 98 nM; at HLA-A*6802, 30 nM; on HLA-A*0206, greater than 10000 nM; at HLA-A*0202, 36 nM.

In the case of `CC(C)C[C@H](NC(=O)[C@H](Cc1ccccc1)NC(=O)[C@@H](NC(=O)[C@@H](N)C(C)C)C(C)C)C(=O)N[C@H](C(=O)N[C@@H](CC(C)C)C(=O)N[C@@H](CO)C(=O)N[C@H](C(=O)N[C@H](C(=O)N[C@@H](Cc1c[nH]c2ccccc12)C(=O)N[C@H](C(=O)O)C(C)C)[C@@H](C)O)C(C)C)[C@@H](C)O` [Peptide 63.0185], the IC50 was 71 nM on HLA-A*0203; 89 nM at HLA-A*0201; greater than 10000 nM at HLA-A*6802; 336 nM on HLA-A*0206; 88 nM on HLA-A*0202.

With `CC(C)C[C@H](NC(=O)[C@@H](N)Cc1ccccc1)C(=O)N[C@@H](CC(N)=O)C(=O)N[C@@H](CCC(=O)O)C(=O)N[C@@H](CO)C(=O)N[C@@H](Cc1ccc(O)cc1)C(=O)N[C@@H](CCCCN)C(=O)N[C@@H](Cc1c[nH]cn1)C(=O)N[C@@H](CCC(=O)O)C(=O)N[C@@H](CCC(N)=O)C(=O)N[C@H](C(=O)O)C(C)C` [Peptide 1419.55], the IC50 on HLA-A*0203 is 5.6 nM; on HLA-A*6802 it was 6150 nM; on HLA-A*0206, 381 nM; on HLA-A*0202, 1.4 nM.

`CSCC[C@H](NC(=O)[C@H](Cc1ccccc1)NC(=O)[C@H](CCC(=O)O)NC(=O)[C@@H](NC(=O)[C@@H](NC(=O)[C@@H](N)CCCCN)C(C)C)[C@@H](C)O)C(=O)N[C@@H](CC(C)C)C(=O)N[C@@H](CS)C(=O)N[C@H](C(=O)O)C(C)C` [Peptide 1418.21]: the IC50 at HLA-A*0203 is 31 nM; on HLA-A*0201, 53 nM; on HLA-A*6802 it was 6670 nM; at HLA-A*0206, 34 nM; at HLA-A*0202, 27 nM.

As to `CC(C)C[C@H](NC(=O)[C@H](CC(C)C)NC(=O)[C@H](Cc1c[nH]cn1)NC(=O)[C@H](CC(C)C)NC(=O)[C@H](CO)NC(=O)[C@@H](NC(=O)[C@H](CS)NC(=O)[C@H](CCC(N)=O)NC(=O)[C@H](CC(C)C)NC(=O)[C@@H](N)CO)C(C)C)C(=O)O` [Peptide 1419.66], the IC50 on HLA-A*0203 is 71 nM; at HLA-A*0201 it was 263 nM; at HLA-A*6802, 5000 nM; on HLA-A*0206, 446 nM; on HLA-A*0202, 4.9 nM.

On to `CC(C)C[C@H](NC(=O)[C@H](CO)NC(=O)[C@@H](NC(=O)[C@H](CS)NC(=O)[C@H](CCC(N)=O)NC(=O)[C@H](CC(C)C)NC(=O)[C@@H](N)CO)C(C)C)C(=O)N[C@@H](Cc1c[nH]cn1)C(=O)N[C@@H](CC(C)C)C(=O)N[C@H](C(=O)O)C(C)C` [Peptide 1418.52], for which the IC50 was 2.8 nM on HLA-A*0203; 13 nM on HLA-A*0201; 205 nM on HLA-A*6802; 5.2 nM at HLA-A*0206; 6.3 nM on HLA-A*0202.

Regarding H-SLHLLSNDMCV-OH [Peptide 1418.66], the IC50 at HLA-A*0203 was 10 nM; on HLA-A*0201, 8.6 nM; on HLA-A*6802, 2160 nM; at HLA-A*0206, 2310 nM; at HLA-A*0202, 0.8 nM.

On to `CSCC[C@H](NC(=O)[C@H](CC(=O)O)NC(=O)[C@H](CC(N)=O)NC(=O)[C@H](CO)NC(=O)[C@H](CC(C)C)NC(=O)[C@H](CC(C)C)NC(=O)[C@@H](N)Cc1c[nH]cn1)C(=O)N[C@@H](CS)C(=O)N[C@H](C(=O)O)C(C)C` [Peptide 1418.20], for which the IC50 on HLA-A*0203 was 278 nM; on HLA-A*0201 it was 119 nM; on HLA-A*6802, greater than 10000 nM; on HLA-A*0206, 176 nM; on HLA-A*0202, 102 nM.

In the case of `CC(C)C[C@H](NC(=O)[C@H](C)N)C(=O)N[C@@H](CO)C(=O)N[C@H](C(=O)NCC(=O)N[C@@H](CS)C(=O)N[C@H](C(=O)NCC(=O)N[C@H](C(=O)O)C(C)C)[C@@H](C)O)C(C)C` [Peptide 1418.15], the IC50 on HLA-A*0203 is 9.1 nM; on HLA-A*0201 it was 24 nM; at HLA-A*6802, greater than 10000 nM; on HLA-A*0206, 264 nM; at HLA-A*0202, 17 nM.

Turning to `CC[C@H](C)[C@H](NC(=O)[C@H](Cc1c[nH]c2ccccc12)NC(=O)[C@@H](NC(=O)[C@@H](NC(=O)[C@H](CO)NC(=O)[C@H](CC(C)C)NC(=O)[C@@H](N)[C@@H](C)O)C(C)C)[C@@H](C)O)C(=O)NCC(=O)N[C@H](C(=O)O)C(C)C` [Peptide 60.0217], the IC50 amounted to 40 nM on HLA-A*0203; 26 nM on HLA-A*0201; 229 nM at HLA-A*6802; 712 nM at HLA-A*0206; 4.9 nM on HLA-A*0202.

As for `CC[C@H](C)[C@H](NC(=O)[C@H](CC(=O)O)NC(=O)[C@H](Cc1ccccc1)NC(=O)[C@@H](NC(=O)[C@H](C)N)[C@@H](C)O)C(=O)N[C@@H](CCC(=O)O)C(=O)N[C@@H](CO)C(=O)N[C@@H](CCCCN)C(=O)N[C@H](C(=O)O)C(C)C` [Peptide 1418.30], the IC50 at HLA-A*0203 turned out to be 44 nM; on HLA-A*0201 it was 238 nM; at HLA-A*6802 it was 258 nM; at HLA-A*0206, 82 nM; at HLA-A*0202, 27 nM.

Consider `CC(C)C[C@H](NC(=O)[C@H](CC(=O)O)NC(=O)CNC(=O)[C@H](CCC(=O)O)NC(=O)[C@@H]1CCCN1C(=O)[C@H](CC(C)C)NC(=O)CN)C(=O)N[C@H](C(=O)N[C@@H](Cc1ccc(O)cc1)C(=O)N[C@H](C(=O)O)C(C)C)C(C)C` [Peptide 1389.22], for which the IC50 at HLA-A*0201 is 42 nM; at HLA-A*6802 it was 964 nM; on HLA-A*0206, 112 nM; on HLA-A*0202 it was 2 nM.

`CC[C@H](C)[C@H](NC(=O)[C@H](Cc1c[nH]c2ccccc12)NC(=O)[C@@H](NC(=O)[C@@H](NC(=O)[C@H](CO)NC(=O)[C@H](CC(C)C)NC(=O)[C@@H](NC(=O)[C@H](CC(C)C)NC(=O)[C@H](Cc1ccccc1)NC(=O)[C@@H](NC(=O)[C@@H](N)C(C)C)C(C)C)[C@@H](C)O)C(C)C)[C@@H](C)O)C(=O)O` [Peptide 1419.25]: the IC50 at HLA-A*0203 is 63 nM; on HLA-A*6802, greater than 10000 nM; on HLA-A*0206, 2850 nM; at HLA-A*0202, 159 nM.

Consider `CSCC[C@H](NC(=O)[C@H](Cc1ccccc1)NC(=O)[C@H](CCCCN)NC(=O)[C@@H](NC(=O)[C@@H](NC(=O)[C@@H](N)CCCCN)C(C)C)[C@@H](C)O)C(=O)N[C@@H](CC(C)C)C(=O)N[C@@H](CS)C(=O)N[C@H](C(=O)O)C(C)C` [Peptide 60.0220], for which the IC50 on HLA-A*0203 is 53 nM; at HLA-A*0201 it was 69 nM; on HLA-A*6802, greater than 10000 nM; on HLA-A*0206, 128 nM; on HLA-A*0202, 518 nM.
